From patent publication US20100074932A1, “ANTIMICROBIAL COMPOSITIONS CONTAINING GALLIUM” (priority 2006, published 2010)

Assays:
[1] = on exposure of the coating to body fluid, based on relative solubilities in water
Description: The differences in the solubility of the different salts in the composition will result in different and prolonged rates of release of the oligodynamic gallium in the coating composition when a device coated with the composition is exposed to body fluid. The amount of water in the final coating solution is about 30% of the total solvent weight.

[2] = tested on: Escherichia coli 6418; assay: Microbial colonization of hydrogel coated latex foley catheter surface, plate counting; format: cell-based; details: 0.2 mM gallium nitrate, 48 hours, compared to positive control with no gallium, FIG. 3
Method: After 48 hours, catheter pieces were removed, microorganisms were recovered from the catheter surface and enumerated by plate counting methods.

[3] = tested on: Escherichia coli 6418; assay: Biofilm formation on catheter after two hours pre-attachment of bacteria, plate counting; format: cell-based; details: 0.2 mM gallium nitrate, 48 hours, compared to positive control with no gallium, FIG. 4

| Compound | order of release from the coating composition [1] | microbial colonization of the catheter surface [2] | biofilm formation [3] |
| --- | --- | --- | --- |
| [I][Ga]([I])[I] [gallium iodide] | lastly |  |  |
| CC(=O)[O-].CC(=O)[O-].CC(=O)[O-].[Ga+3] [gallium acetate] | Then |  |  |
| O=[N+]([O-])[O-].O=[N+]([O-])[O-].O=[N+]([O-])[O-].[Ga+3] [gallium nitrate] |  | reduced microbial colonization | reduced biofilm formation |
